# From publication PMC7467159, “Anaerobic fixed-target serial crystallography” (IUCrJ, 2020)
# Legend:
# IPNS = biological target: T1, IPNS (Aspergillus nidulans, UniProt P05326); assay: room-temperature serial crystallography; format: binding; conditions: anaerobic, Fe(II); cysteinyl sulfur ligates Fe
# T1 construct: gene ipnA; recombinant, purified as in Roach et al; Fe(II) enzyme, microcrystals
# T1 sequence (P05326 1-331): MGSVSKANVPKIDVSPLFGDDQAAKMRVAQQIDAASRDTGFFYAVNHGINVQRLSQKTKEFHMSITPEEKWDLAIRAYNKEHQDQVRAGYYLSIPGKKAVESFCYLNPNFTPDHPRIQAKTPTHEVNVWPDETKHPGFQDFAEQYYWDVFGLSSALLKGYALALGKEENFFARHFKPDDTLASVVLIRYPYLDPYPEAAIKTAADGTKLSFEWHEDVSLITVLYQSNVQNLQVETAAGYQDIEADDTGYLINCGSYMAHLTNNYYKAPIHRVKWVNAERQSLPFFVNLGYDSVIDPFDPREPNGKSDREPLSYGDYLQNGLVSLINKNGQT
# VioC = biological target: T2, VioC (Streptomyces vinaceus, UniProt Q6WZB0); assay: room-temperature serial crystallography; format: binding; conditions: Fe(II)
# T2 construct: codon-optimized, pNIC28-Bsa4, E. coli T7 LysY; His-tag cleaved with TEV protease; SEC purified; Fe(II) enzyme, microcrystals
# T2 sequence (Q6WZB0 whole entry): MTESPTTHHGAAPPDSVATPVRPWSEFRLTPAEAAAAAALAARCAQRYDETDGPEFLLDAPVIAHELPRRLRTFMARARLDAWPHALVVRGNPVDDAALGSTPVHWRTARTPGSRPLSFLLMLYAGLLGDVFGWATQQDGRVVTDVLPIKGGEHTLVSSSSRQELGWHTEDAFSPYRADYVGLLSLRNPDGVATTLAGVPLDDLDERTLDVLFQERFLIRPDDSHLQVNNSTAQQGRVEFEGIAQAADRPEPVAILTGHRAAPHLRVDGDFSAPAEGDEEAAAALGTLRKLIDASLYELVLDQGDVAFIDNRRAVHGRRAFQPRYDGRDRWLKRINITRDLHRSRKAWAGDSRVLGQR
structure (smiles),measurement,setting,value
CC(C)[C@@H](NC(=O)[C@H](CS)NC(=O)CCC[C@H](N)C(=O)O)C(=O)O [ACV],room-temperature serial crystallography,IPNS,completed by a water molecule and the cysteinyl sulfur of the substrate ACV
O=C(O)CCC(=O)C(=O)O [2OG],room-temperature serial crystallography,"VioC; anaerobic, L-arginine, bidentate to Fe",the 2OG ligates the Fe in a bidentate manner via its oxalyl group
N=C(N)NCCC[C@H](N)C(=O)O [L-arginine],room-temperature serial crystallography,"VioC; anaerobic, 2OG, active site",VioC:Fe:2OG:Arg substrate complex structure reported in this study (PDB entry 6y0n)
O=C(O)CCC(=O)O [succinate],room-temperature serial crystallography,"VioC; formed in crystallo after 1 h air exposure, (3S)-OH-Arg, monodentate to Fe","succinate is bound in a monodentate manner, also trans to His168"
N=C(N)NCC[C@H](O)[C@H](N)C(=O)O [(3S)-OH-Arg],room-temperature serial crystallography,"VioC; formed in crystallo after 1 h air exposure, succinate, active site",the (3S)-OH-Arg is positioned to coordinate Fe via its (3S)-hydroxyl group
